Assay results as given in patent publication US6737383B1, “Herbicidal oxadiazolidines” (priority 1999, dated 2004).

Tests used:
crabgrass = assay: Test B pre/postemergence crabgrass; type: in vivo, Digitaria sanguinalis
In short: (§1)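 Response is a visual 0-to-10 score relative to untreated plants, where 0 means no effect and 10 means complete control, taken twelve to sixteen days after application. Treatments went onto soil at planting and onto foliage of 1- to 4-leaf plants, using a surfactant-containing non-phytotoxic solvent.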

rice = assay: Test B flood test rice; type: in vivo, Oryza sativa
In short: (§2)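 Read-out is a visual response score from 0 (no effect) to 10 (complete control), assigned by comparison with untreated controls. Treatment was applied at the 2-leaf stage, and plants stayed in the greenhouse for twelve to sixteen days before scoring.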

pigweed = assay: Test B pre/postemergence pigweed; type: in vivo, Amaranthus retroflexus
In short: as §1

blackgrass = assay: Test B pre/postemergence blackgrass; type: in vivo, Alopecurus myosuroides
In short: as §1

wheat = assay: Test B pre/postemergence wheat; type: in vivo, Triticum aestivum
In short: as §1

smallflower flatsedge = assay: Test B flood test smallflower flatsedge; type: in vivo, Cyperus difformis
In short: as §2

cocklebur = assay: Test B pre/postemergence cocklebur; type: in vivo, Xanthium strumarium
In short: as §1

giant foxtail = assay: Test B pre/postemergence giant foxtail; type: in vivo, Setaria faberii
In short: as §1

duck salad = assay: Test B flood test duck salad; type: in vivo, Heteranthera limosa
In short: as §2

purple nutsedge = assay: Test B pre/postemergence purple nutsedge; type: in vivo, Cyperus rotundus
In short: as §1

morningglory = assay: Test B pre/postemergence morningglory; type: in vivo, Ipomoea hederacea
In short: as §1

corn = assay: Test B pre/postemergence corn; type: in vivo, Zea mays
In short: as §1

soybean = assay: Test B pre/postemergence soybean; type: in vivo, Glycine max
In short: as §1

velvetleaf = assay: Test B pre/postemergence velvetleaf; type: in vivo, Abutilon theophrasti
In short: as §1

rape = assay: Test B pre/postemergence rape; type: in vivo, Brassica napus
In short: as §1

sugar beet = assay: Test B pre/postemergence sugar beet; type: in vivo, Beta vulgaris
In short: as §1

[1] = Postemergence, Rate 125 g/ha, scale of 0 to 10 where 0 is no effect and 10 is complete control
[2] = Preemergence, Rate 62 g/ha, scale of 0 to 10 where 0 is no effect and 10 is complete control
[3] = Preemergence, Rate 125 g/ha, 0 is no effect, 10 is complete control
[4] = Preemergence, Rate 250 g/ha, scale 0 to 10, 0 is no effect, 10 is complete control
[5] = Preemergence, Rate 500 g/ha, scale 0 to 10 (0 no effect, 10 complete control)
[6] = Rate 62 g/ha, Postemergence, scale of 0 to 10 where 0 is no effect and 10 is complete control
[7] = Rate 250 g/ha, Postemergence, scale 0 to 10, 0 is no effect, 10 is complete control
[8] = Rate 500 g/ha, Postemergence, scale 0 to 10
[9] = Postemergence (flood test species), Rate 125 g/ha, scale of 0 to 10 where 0 is no effect and 10 is complete control
[10] = Rate 62 g/ha, Postemergence section, flood test species, scale of 0 to 10 where 0 is no effect and 10 is complete control
[11] = Rate 250 g/ha, Postemergence (flood test), scale 0 to 10, 0 is no effect, 10 is complete control
[12] = Rate 500 g/ha, listed under Postemergence (flood test species), scale 0 to 10

CC(C)N(C(=O)n1oc(=O)n(N(C)C)c1=O)c1ccc(F)cc1 [Compound 170]
Crabgrass plant response rating (crabgrass; [1]): 9
Crabgrass plant response rating (crabgrass; [2]): 8
Crabgrass plant response rating (0 to 10 scale) (crabgrass; [3]): 10
Crabgrass plant response rating (crabgrass; [4]): 10
Crabgrass plant response rating (crabgrass; [5]): 10
Crabgrass plant response rating (crabgrass; [6]): 8
Plant response rating, Crabgrass (crabgrass; [7]): 9
Crabgrass plant response rating (crabgrass; [8]): 9
Rice plant response rating (rice; [9]): 0
Rice plant response rating (rice; [10]): 0
Plant response rating, Rice (rice; [11]): 0
Rice plant response rating (rice; [12]): 0
Redroot pigweed plant response rating (pigweed; [1]): 0
Redroot pigweed plant response rating (pigweed; [2]): 10
Redroot pigweed plant response rating (0 to 10 scale) (pigweed; [3]): 10
Redroot pigweed plant response rating (pigweed; [4]): 10
Redroot pigweed plant response rating (pigweed; [5]): 10
Redroot pigweed plant response rating (pigweed; [6]): 0
Plant response rating, Redroot pigweed (pigweed; [7]): 6
Redroot pigweed plant response rating (pigweed; [8]): 6
Blackgrass plant response rating (blackgrass; [1]): 9
Blackgrass plant response rating (blackgrass; [2]): 10
Blackgrass plant response rating (0 to 10 scale) (blackgrass; [3]): 10
Blackgrass plant response rating (blackgrass; [4]): 10
Blackgrass plant response rating (blackgrass; [5]): 10
Blackgrass plant response rating (blackgrass; [6]): 9
Plant response rating, Blackgrass (blackgrass; [7]): 9
Blackgrass plant response rating (blackgrass; [8]): 9
Wheat plant response rating (wheat; [2]): 5
Wheat plant response rating (0 to 10 scale) (wheat; [3]): 6
Wheat plant response rating (wheat; [4]): 8
Wheat plant response rating (wheat; [5]): 8
Plant response rating, Wheat (wheat; [7]): 6
Wheat plant response rating (wheat; [8]): 7
S. Flatsedge plant response rating (smallflower flatsedge; [9]): 0
S. Flatsedge plant response rating (smallflower flatsedge; [10]): 0
Plant response rating, S. Flatsedge (smallflower flatsedge; [11]): 0
S. Flatsedge plant response rating (smallflower flatsedge; [12]): 0
Cocklebur plant response rating (cocklebur; [1]): 0
Cocklebur plant response rating (cocklebur; [2]): 0
Cocklebur plant response rating (0 to 10 scale) (cocklebur; [3]): 0
Cocklebur plant response rating (cocklebur; [4]): 0
Cocklebur plant response rating (cocklebur; [5]): 9
Cocklebur plant response rating (cocklebur; [6]): 0
Plant response rating, Cocklebur (cocklebur; [7]): 0
Cocklebur plant response rating (cocklebur; [8]): 0
Giant foxtail plant response rating (giant foxtail; [1]): 7
Giant foxtail plant response rating (giant foxtail; [2]): 9
Giant foxtail plant response rating (0 to 10 scale) (giant foxtail; [3]): 10
Giant foxtail plant response rating (giant foxtail; [4]): 10
Giant foxtail plant response rating (giant foxtail; [5]): 10
Giant foxtail plant response rating (giant foxtail; [6]): 4
Plant response rating, Giant foxtail (giant foxtail; [7]): 8
Giant foxtail plant response rating (giant foxtail; [8]): 8
Ducksalad plant response rating (duck salad; [9]): 0
Ducksalad plant response rating (duck salad; [10]): 0
Plant response rating, Ducksalad (duck salad; [11]): 0
Ducksalad plant response rating (duck salad; [12]): 0
Nutsedge plant response rating (purple nutsedge; [1]): 2
Nutsedge plant response rating (purple nutsedge; [2]): 0
Nutsedge plant response rating (0 to 10 scale) (purple nutsedge; [3]): 9
Nutsedge plant response rating (purple nutsedge; [4]): 9
Nutsedge plant response rating (purple nutsedge; [5]): 9
Nutsedge plant response rating (purple nutsedge; [6]): 2
Plant response rating, Nutsedge (purple nutsedge; [7]): 7
Nutsedge plant response rating (purple nutsedge; [8]): 7
Morningglory plant response rating (morningglory; [1]): 1
Morningglory plant response rating (morningglory; [2]): 0
Morningglory plant response rating (0 to 10 scale) (morningglory; [3]): 3
Morningglory plant response rating (morningglory; [4]): 6
Morningglory plant response rating (morningglory; [5]): 10
Morningglory plant response rating (morningglory; [6]): 0
Plant response rating, Morningglory (morningglory; [7]): 1
Morningglory plant response rating (morningglory; [8]): 2
Corn plant response rating (corn; [1]): 0
Corn plant response rating (corn; [2]): 0
Corn plant response rating (0 to 10 scale) (corn; [3]): 2
Corn plant response rating (corn; [4]): 6
Corn plant response rating (corn; [5]): 9
Corn plant response rating (corn; [6]): 0
Plant response rating, Corn (corn; [7]): 0
Corn plant response rating (corn; [8]): 0
Soybean plant response rating (soybean; [1]): 3
Soybean plant response rating (soybean; [2]): 0
Soybean plant response rating (0 to 10 scale) (soybean; [3]): 1
Soybean plant response rating (soybean; [4]): 4
Soybean plant response rating (soybean; [5]): 9
Soybean plant response rating (soybean; [6]): 2
Plant response rating, Soybean (soybean; [7]): 4
Soybean plant response rating (soybean; [8]): 7
Velvetleaf plant response rating (velvetleaf; [2]): 3
Velvetleaf plant response rating (0 to 10 scale) (velvetleaf; [3]): 7
Velvetleaf plant response rating (velvetleaf; [4]): 10
Velvetleaf plant response rating (velvetleaf; [5]): 10
Plant response rating, Velvetleaf (velvetleaf; [7]): 5
Velvetleaf plant response rating (velvetleaf; [8]): 5
Rape plant response rating (rape; [1]): 0
Rape plant response rating (rape; [2]): 2
Rape plant response rating (0 to 10 scale) (rape; [3]): 8
Rape plant response rating (rape; [4]): 10
Rape plant response rating (rape; [5]): 10
Rape plant response rating (rape; [6]): 0
Plant response rating, Rape (rape; [7]): 0
Rape plant response rating (rape; [8]): 3
Sugarbeets plant response rating (sugar beet; [1]): 0
Sugarbeets plant response rating (sugar beet; [2]): 4
Sugarbeets plant response rating (0 to 10 scale) (sugar beet; [3]): 8
Sugarbeets plant response rating (sugar beet; [4]): 8
Sugarbeets plant response rating (sugar beet; [5]): 10
Sugarbeets plant response rating (sugar beet; [6]): 0
Plant response rating, Sugarbeets (sugar beet; [7]): 2
Sugarbeets plant response rating (sugar beet; [8]): 4
